Measurements published in paper PMC7059547, “Synthesis and herbicidal activities of aryloxyacetic acid derivatives as HPPD inhibitors” (Beilstein Journal of Organic Chemistry, 2020).
“Also recorded” adds a separate entry of the source. Where two headings read alike, the source gives them in different places.

Assays:
[1] = tested on: E. crus-galli, S. faberii, D. sanguinalis, A. retroflexus, E. prostrata, A. juncea; experiment: Post-emergence greenhouse herbicidal activity; format: in vivo; design: Sum of inhibition rate: scale not given here; conditions: 150 g ai/ha; for Sum of inhibition rate / herbicidal activity (in words): post-emergence; for Sum of inhibition rate: sum over six weeds (AJ, AR, EP, DS, EC, SF), 18 days after treatment
[2] = target: T1, Arabidopsis thaliana HPPD (AtHPPD) (Arabidopsis thaliana, UniProt P93836); experiment: AtHPPD enzyme inhibition study; format: biochemical
T1 construct: made in house
T1 sequence (P93836 1-445): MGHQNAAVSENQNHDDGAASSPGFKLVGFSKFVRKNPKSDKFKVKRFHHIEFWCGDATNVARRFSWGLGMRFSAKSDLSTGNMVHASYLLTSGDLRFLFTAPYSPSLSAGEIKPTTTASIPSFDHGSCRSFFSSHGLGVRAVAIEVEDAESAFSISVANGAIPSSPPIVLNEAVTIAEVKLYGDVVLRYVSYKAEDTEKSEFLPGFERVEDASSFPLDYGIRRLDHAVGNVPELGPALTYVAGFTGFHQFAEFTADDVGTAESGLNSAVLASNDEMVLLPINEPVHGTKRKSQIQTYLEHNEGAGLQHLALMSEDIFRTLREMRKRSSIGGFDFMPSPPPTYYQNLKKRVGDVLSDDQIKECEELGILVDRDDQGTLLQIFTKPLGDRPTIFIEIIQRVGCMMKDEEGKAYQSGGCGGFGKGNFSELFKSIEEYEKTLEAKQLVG
Description: AtHPPD was prepared and puriﬁed according to the reported methods in the literature [19–2035–37].

cotton = experiment: Postemergence crop safety, cotton; format: in vivo; conditions: 150 g ai/ha, four-leaf stage, after 15 days
Description: (§1) The representative crops, rice, wheat, maize, cotton, soybean, and canola were selected to test the crop safety of compound II3, II4, and II5. The six crops were separately planted in ﬂowerpots (12 cm diameter) containing the composite nutrient soil and grown at room temperature. When the crops had reached the four-leaf stage, the safety experiments were conducted at the rate of 150 g ai/ha. After 15 days, the ﬁnal results of crop safety were evaluated with two duplicates per experiment (Table 3).

maize = experiment: Postemergence crop safety, maize; format: in vivo; conditions: 150 g ai/ha; for % injury maize: postemergence, four-leaf stage, after 15 days
Description: as §1

wheat = experiment: Postemergence crop safety, wheat; format: in vivo; conditions: 150 g ai/ha; for % injury wheat: postemergence, four-leaf stage, after 15 days
Description: as §1

soybean = experiment: Postemergence crop safety, soybean; format: in vivo; conditions: 150 g ai/ha, four-leaf stage, after 15 days
Description: as §1

rice = experiment: Postemergence crop safety, rice; format: in vivo; conditions: 150 g ai/ha, four-leaf stage, after 15 days
Description: as §1

canola = experiment: Postemergence crop safety, canola; format: in vivo; conditions: 150 g ai/ha, four-leaf stage, after 15 days
Description: as §1

Structure (SMILES)	Ki ([2]; read-out: AtHPPD inhibition Ki)	Sum of inhibition rate [1]	other results
O=C1CCCC(O)=C1C(=O)COc1cc(Cl)ccc1Oc1ccc(Cl)cc1Cl [I26]	1900 ± 1 nM	30	–
Cn1nc(C(F)(F)F)c(C(=O)COc2c(Cl)cc(Cl)cc2Cl)c1O [I12]	–	335	herbicidal activity (in words) [1]: poorer than expected herbicidal activity
Cc1ccc(OCC(=O)c2c(C)nn(C)c2O)c(C)c1 [I32]	2000 ± 9 nM	30	–
Cc1ccc(OCC(=O)c2c(C3CC3)nn(C)c2O)c(C)c1 [I33]	2800 ± 45 nM	30	–
COc1cc(C)ccc1OCC(=O)c1c(C2CC2)nn(C)c1O [I38]	–	50	Ki [2]: 2900 ± 38 nM
Cn1nc(C(F)(F)F)c(C(=O)COc2nc(Cl)c(Cl)cc2Cl)c1O [II5]	–	415	% injury cotton (cotton): 90%; % injury maize (maize): 30%; % injury wheat (wheat): 50%; herbicidal activity (in words) [1]: excellent herbicidal activities; % injury soybean (soybean): 70%; % injury rice (rice): 50%; Ki [2]: 120 ± 3 nM; % injury canola (canola): 100%
O=C1CCCC(O)=C1C(=O)COc1ccccc1 [I39]	1300 ± 56 nM	40	–
Cn1nc(C(F)(F)F)c(C(=O)COc2ccccc2)c1O [I2]	1300 ± 17 nM	40	–
COc1cc(C)ccc1OCC(=O)C1=C(O)CCCC1=O [I35]	–	40	Ki [2]: 3300 ± 140 nM
Cc1ccc(OCC(=O)C2=C(O)CCCC2=O)c(C)c1 [I30]	2200 ± 34 nM	40	–
COc1cc(C)ccc1OCC(=O)C1=C(O)CC(C)(C)CC1=O [I36]	–	20	Ki [2]: 3400 ± 210 nM
Cc1ccc(OCC(=O)C2=C(O)CC(C)(C)CC2=O)c(C)c1 [I31]	3100 ± 340 nM	20	–
Cc1ccc(OCC(=O)c2c(C(F)(F)F)nn(C)c2O)c(C)c1 [I34]	2800 ± 670 nM	30	–
CS(=O)(=O)c1ccc(C(=O)C2C(=O)CCCC2=O)c([N+](=O)[O-])c1 [mesotrione, reference compound]	13 ± 1 nM	510	% injury cotton (cotton): 80%; % injury maize (maize): 10%; % injury wheat (wheat): 40%; % injury soybean (soybean): 50%; % injury rice (rice): 50%; % injury canola (canola): 100%
COc1cc(C)ccc1OCC(=O)c1c(C)nn(C)c1O [I37]	–	40	Ki [2]: 2700 ± 530 nM
Cn1nc(C(F)(F)F)c(C(=O)COc2ccc([N+](=O)[O-])cc2)c1O [I21]	1500 ± 41 nM	100	–
Cn1nc(C(F)(F)F)c(C(=O)COc2ccc3ccccc3c2Br)c1O [III4]	2000 ± 12 nM	90	–
Cn1nc(C2CC2)c(C(=O)COc2ccccc2)c1O [I1]	1500 ± 31 nM	60	–
Cn1nc(C2CC2)c(C(=O)COc2nc(Cl)c(Cl)cc2Cl)c1O [II4]	–	520	% injury cotton (cotton): 60%; crop tolerance / safety of maize (in words) (maize): safe for weed control in maize fields; also recorded: tolerance; also recorded: safe for use on maize; % injury maize (maize): 10%; % injury wheat (wheat): 50%; herbicidal activity (in words) [1]: broad-spectrum herbicidal activities; also recorded: slightly higher herbicidal activity than mesotrione; also recorded: excellent herbicidal activities; herbicidal activity for pre-emergence treatment (in words) ([1]; pre-emergence treatment as printed in the abstract): slightly better than that of mesotrione; % injury soybean (soybean): 30%; % injury rice (rice): 30%; Ki [2]: 23 ± 6 nM; % injury canola (canola): 100%

Further compounds by falling Ki ([2]; read-out: AtHPPD inhibition Ki), results first:

Ki ([2]; read-out: AtHPPD inhibition Ki)	Structure (SMILES)	Sum of inhibition rate [1]	other results
1200 ± 31 nM	Cc1nn(C)c(O)c1C(=O)COc1ccccc1 [I40]	50	–
1020 ± 9 nM	CC1(C)CC(=O)C(C(=O)COc2ccc([N+](=O)[O-])cc2Cl)=C(O)C1 [I22]	70	–
1000 ± 36 nM	CC1(C)CC(=O)C(C(=O)COc2ccc(Cl)cc2)=C(O)C1 [I5]	110	–
930 ± 32 nM	Cn1nc(C(F)(F)F)c(C(=O)COc2ccc(Cl)cc2)c1O [I6]	180	–
930 ± 6 nM	CC1(C)CC(=O)C(C(=O)COc2ccc([N+](=O)[O-])cc2)=C(O)C1 [I18]	70	–
630 ± 2 nM	Cc1nn(C)c(O)c1C(=O)COc1ccc([N+](=O)[O-])cc1 [I19]	100	–
590 ± 43 nM	Cn1nc(C(F)(F)F)c(C(=O)COc2ccccc2Cl)c1O [I4]	40	–
500 ± 3 nM	Cn1nc(C2CC2)c(C(=O)COc2ccc([N+](=O)[O-])cc2)c1O [I20]	60	–
450 ± 33 nM	CC1(C)CC(=O)C(C(=O)COc2ccccc2[N+](=O)[O-])=C(O)C1 [I13]	30	–
440 ± 13 nM	Cn1nc(C(F)(F)F)c(C(=O)COc2ccccc2[N+](=O)[O-])c1O [I16]	10	–
360 ± 12 nM	Cn1nc(C2CC2)c(C(=O)COc2ccc(Cl)cc2Cl)c1O [I7]	210	–
360 ± 12 nM	Cn1nc(C2CC2)c(C(=O)COc2ccccc2Cl)c1O [I3]	80	–
310 ± 48 nM	CC1(C)CC(=O)C(C(=O)COc2c(Cl)cc(Cl)cc2Cl)=C(O)C1 [I9]	70	–
270 ± 4 nM	Cn1nc(C2CC2)c(C(=O)COc2ccccc2[N+](=O)[O-])c1O [I15]	40	–
260 ± 12 nM	Cn1nc(C2CC2)c(C(=O)COc2ccc([N+](=O)[O-])cc2Cl)c1O [I24]	110	–
240 ± 3 nM	Cc1nn(C)c(O)c1C(=O)COc1c(Cl)cc(Cl)cc1Cl [I10]	60	–
230 ± 4 nM	O=C1CCCC(O)=C1C(=O)COc1ccc([N+](=O)[O-])cc1 [I17]	80	–
230 ± 11 nM	O=C1CCCC(O)=C1C(=O)COc1cccnc1[N+](=O)[O-] [III5]	50	–
220 ± 23 nM	Cn1nc(C(F)(F)F)c(C(=O)COc2ccc(Cl)cc2Cl)c1O [I8]	170	–
210 ± 42 nM	Cc1nn(C)c(O)c1C(=O)COc1ccccc1[N+](=O)[O-] [I14]	40	–
210 ± 43 nM	Cn1nc(C(F)(F)F)c(C(=O)COc2ccc([N+](=O)[O-])cc2Cl)c1O [I25]	100	–
210 ± 42 nM	Cn1nc(C2CC2)c(C(=O)COc2cccnc2[N+](=O)[O-])c1O [III6]	60	–
97 ± 10 nM	CC1(C)CC(=O)C(C(=O)COc2nc(Cl)c(Cl)cc2Cl)=C(O)C1 [II2]	20	–
93 ± 7 nM	O=C1CCCC(O)=C1C(=O)COc1nc(Cl)c(Cl)cc1Cl [II1]	50	–
81 ± 1 nM	Cn1nc(C2CC2)c(C(=O)COc2c(Cl)cc(Cl)cc2Cl)c1O [I11]	335	–
21 ± 4 nM	Cc1nn(C)c(O)c1C(=O)COc1nc(Cl)c(Cl)cc1Cl [II3]	415	% injury cotton (cotton): 60%; crop tolerance / safety of maize (in words) (maize): high tolerance; % injury maize (maize): 10%; crop tolerance of wheat (in words) (wheat): high tolerance; % injury wheat (wheat): 10%; herbicidal activity (in words) [1]: broad-spectrum herbicidal activities; also recorded: excellent herbicidal activities; % injury soybean (soybean): 50%; % injury rice (rice): 40%; % injury canola (canola): 90%
12 ± 9 nM	Cc1nn(C)c(O)c1C(=O)COc1ccc([N+](=O)[O-])cc1Cl [I23]	80	–
